This is an account of results in US12258338B2, “Modulators of the integrated stress response pathway” (EVOTEC INTERNATIONAL GMBH, priority 2019, dated 2025).

For one data set, the system named is ATF4. Description: HEK-ATF4 High Content Imaging assay (prevention of Tunicamycin induced ISR; ATF4 signal ratio between nucleus and cytoplasm). Type of data set: cell-based. In short, it runs like this:
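Wild-type HEK293 cells in 0.3% FBS medium were co-treated with compounds and Tunicamycin (3.3 μM in prediluted medium, 11-fold over final) for 6 h at 37 °C. Fixed cells were immunostained for ATF4 with Hoechst nuclei; imaging gave nuclear/cytoplasmic ATF4 ratio, with nuclei counts as toxicity control.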

Data set [1] in a line: Thermodynamic (Equilibrium) solubility in selected buffer. To be noted: for solubility: aqueous buffer, thermodynamic from solid. Type of data set: physicochemical. Put shortly:
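Powdered compound at 1 mg/mL target in 50 mM phosphate pH 2.0, 50 mM acetate pH 5.5 or 50 mM phosphate pH 7.4, stirred overnight at r.t. in the dark, then 0.45 μm filtered. Filtrate quantified by UPLC-UV peak area against a 0.8 mg/mL DMSO reference.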

Data set [2] can be described thus: Log D 7.4 assay (1-octanol / phosphate buffer pH 7.4). Type of data set: physicochemical. The method, then:
Phosphate buffer (1 M) was diluted to 20 mM with deionised water and adjusted to pH 7.4 (±0.05) with phosphoric acid or sodium hydroxide. A 1:1 mixture of phosphate buffer (20 mM) and 1-octanol were saturated by tumbling overnight after which time the two phases were separated. Using an automated liquid handler the following procedure was carried out: 20 mM DMSO stocks of assay and control compounds were reformatted to provide cassettes of 4 compounds per well giving a final concentration of 5 mM per compound. In duplicate 5 μL of the cassetted compounds were added to 495 μL 1-octanol (saturated with buffer) followed by 495 μL of buffer (saturated with 1-octanol) in a 96-well plate giving final incubation concentrations of 25 μM (50 μM max concentration in either layer if all compound partitioned into a single matrix). The layers were mixed by aspirating and dispensing the buffer and octanol layers into one another three times. The plate was sealed, shaken for 120 minutes and then centrifuged at 25° C. for 15 min at 4600 rpm. The 1-octanol and buffer layer were sampled separately (ensuring no cross contamination) and the respective samples diluted with 60:40 ACN:0.1 M ammonium acetate pH 7.4 (containing external standard; Sulfisoxazole, assay concentration 120 nM) to obtain final theoretical maximum concentrations of the 1-octanol layer of 0.025 μM, 0.5 μM and a buffer layer concentration of 0.5 μM. The second buffer sample was prepared by diluting the assay buffer layer with acetonitrile (containing external standard; Sulfisoxazole, assay concentration 120 nM) to give a theoretical maximum concentration of 20 μM. The analytical samples were analysed by LC-MS/MS and the Log D calculated as shown:
[formula] Where PA=Peak area and ES=External standard

[3] abbreviates: Homo sapiens, Wild-type HEK293 cells, Tunicamycin induced ISR, 6 h, read-out: IIEK-ATF4 Activity.
[4] abbreviates: Table 24 category key, read-out: HEK-ATF4 Activity*.
Setting [5] is: acetate buffer 50 mM, pH 5, Table 24, read-out: Solubility (μg/mL) pH 5.
Where [6] appears, read: acetate buffer 50 mM, pH 5.5, Table 25, read-out: Solubility (μg/mL) pH 5.5.
[7] abbreviates: phosphate buffer 50 mM, pH 7.4, Table 24, read-out: Solubility (μg/mL) pH 7.4.

Values after ≈ are worked out from the molar mass of the structure shown. Read-outs that look alike come from different tables or passages of the source.

As to `O=C(COc1ccc(Cl)c(F)c1)N[C@H]1CC[C@H](c2nnc(COC(F)(F)F)o2)NC1` [Example 61, 2-(4-chloro-3-fluorophenoxy)-N-[(3S,6R)-6-(5-[(trifluoromethoxy)methyl]-1,3,4-oxadiazol-2-yl}piperidin-3-yl]acetamide], the IC50 in the data set on ATF4 (setting [3]) lay in the range of 2000 to 15000 nM; in the data set on ATF4 (setting [4]) it was 500 to 2000 nM. Further, the solubility amounted to 156 µg/mL (≈ 345 µM) in data set [1] (setting [5]); 156 µg/mL (≈ 345 µM) in data set [1] (setting [6]); 907 µg/mL (≈ 2000 µM) in data set [1] (phosphate buffer 50 mM, pH 2, Table 24, read-out: Solubility (μg/mL) pH 2); 90 µg/mL (≈ 199 µM) in data set [1] (setting [7]). This compound registered a logD at 120 min in data set [2] of 2.3.
For the compound `O=C(COc1ccc(Cl)c(F)c1)N[C@H]1CC[C@H](c2nnc([C@H]3C[C@@H](OC(F)(F)F)C3)o2)NC1` [Example 50, 2-(4-chloro-3-fluorophenoxy)-N-[(3S,6R)-6-{5-[(1s,3s)-3-(trifluoromethoxy)cyclobutyl]-1,3,4-oxadiazol-2-yl}piperidin-3-yl]acetamide], the IC50 in the data set with ATF4 (setting [3]) and in the data set with ATF4 (setting [4]) was 1 to 500 nM in each case. Moreover, the results for the solubility in data set [1] (setting [5]), in data set [1] (setting [6]) and in data set [1] (setting [7]) were 78 µg/mL (≈ 158 µM), 78 µg/mL (≈ 158 µM) and 63 µg/mL (≈ 128 µM), respectively. In addition, in data set [1] (pH 2, Table 24), the “Solubility (μg/mL) pH 2” value is given as “quant.^#”. Moreover, in data set [1] (pH 2.0, Table 25), the “Solubility (μg/mL) pH 2.0” value was “quant.^#”. For the same compound, the logD at 120 min in data set [2] amounted to 2.7.

What is called logD is lipophilicity at a set pH, counting ionised and neutral species. A lower logD goes with a more hydrophilic compound.
